The record followed here is article PMC9952331, “Ethyl Gallate Isolated from Castanopsis cuspidata var. sieboldii Branches Inhibits Melanogenesis and Promotes Autophagy in B16F10 Cells” (Antioxidants, 2023).

Structures are written as SMILES. Converted amounts (≈) assume the structure as drawn.

Assay [1] addresses mushroom tyrosinase. Kind of assay: enzyme kinetics with L-DOPA substrate, Lineweaver-Burk plot; IC50 […] also reported. It counts as biochemical.
In assay [2] the test system is mushroom tyrosinase. Kind of assay: cell-free tyrosinase inhibition assay with L-tyrosine substrate, absorbance at […] nm. Type of assay: biochemical.

By Ki is commonly meant a dissociation constant, usually derived from enzyme kinetics or from competition with a known ligand. A lower Ki goes with tighter binding. `CCOC(=O)c1cc(O)c(O)c(O)c1` [Compound 1, ethyl gallate] displayed a Ki at mushroom tyrosinase [1] of 434 µM.

By IC50 is commonly meant the concentration at which inhibition is half-maximal. Lower therefore signals inhibition by little substance. On to `O=C1O[C@H]([C@@H](O)CO)C(O)=C1O` [ascorbic acid], for which, in the assay with mushroom tyrosinase [2], the IC50 is on record as 30.99 ± 0.86 µg/mL (≈ 176 µM).
